Measurements from PubChem BioAssay AID1919008 (Molecular Pharmacology Branch, DTP, NCI, 2023).
Values joined by “and” are separate entries in the source; they are usually repeats but may differ in a detail not shown here. Equal values may be shown once.

Test system: DMS-114 complex spheroids with HUVEC/MSC, growth % test/control
Experiment: Anticancer human tumor DMS-114 cell line growth inhibition [AhR];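 note: spheroids exposed to agents for 7 days before readout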;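 for viability, T/C: 100% = DMSO vehicle control wells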
Conditions: for viability, T/C: stronger effect = lower value
How it was run: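 Agents were dosed in half-log steps down from roughly clinical Cmax, or from 10 microM where Cmax was unknown, alone and with AhR antagonists. Read-out: percent test/control growth of tumor spheroids containing HUVEC and MSC stromal cells.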

[1] = curve of first compound, second compound 0.1 µM
[2] = curve of first compound, second compound 0.316 µM
[3] = curve of first compound, second compound 1 µM
[4] = curve of first compound, second compound 3.16 µM
[5] = curve of first compound, second compound 10 µM
[6] = second compound 0.1 µM, first compound 0.0316 µM
[7] = second compound 0.1 µM, first compound 0.1 µM
[8] = second compound 0.1 µM, first compound 0.316 µM
[9] = second compound 0.1 µM, first compound 1 µM
[10] = second compound 0.1 µM, first compound 3.16 µM
[11] = second compound 0.1 µM, first compound 10 µM
[12] = second compound 0.316 µM, first compound 0.0316 µM
[13] = second compound 0.316 µM, first compound 0.1 µM
[14] = second compound 0.316 µM, first compound 0.316 µM
[15] = second compound 0.316 µM, first compound 1 µM
[16] = second compound 0.316 µM, first compound 3.16 µM
[17] = second compound 0.316 µM, first compound 10 µM
[18] = second compound 1 µM, first compound 0.0316 µM
[19] = second compound 1 µM, first compound 0.1 µM
[20] = second compound 1 µM, first compound 0.316 µM
[21] = second compound 1 µM, first compound 1 µM
[22] = second compound 1 µM, first compound 3.16 µM
[23] = second compound 1 µM, first compound 10 µM
[24] = second compound 3.16 µM, first compound 0.0316 µM
[25] = second compound 3.16 µM, first compound 0.1 µM
[26] = second compound 3.16 µM, first compound 0.316 µM
[27] = second compound 3.16 µM, first compound 1 µM
[28] = second compound 3.16 µM, first compound 3.16 µM
[29] = second compound 3.16 µM, first compound 10 µM
[30] = second compound 10 µM, first compound 0.0316 µM
[31] = second compound 10 µM, first compound 0.1 µM
[32] = second compound 10 µM, first compound 0.316 µM
[33] = second compound 10 µM, first compound 1 µM
[34] = second compound 10 µM, first compound 3.16 µM
[35] = second compound 10 µM, first compound 10 µM
[36] = second compound 0.1 µM, first compound 0.00316 µM
[37] = second compound 0.1 µM, first compound 0.01 µM
[38] = second compound 0.316 µM, first compound 0.00316 µM
[39] = second compound 0.316 µM, first compound 0.01 µM
[40] = second compound 1 µM, first compound 0.00316 µM
[41] = second compound 1 µM, first compound 0.01 µM
[42] = second compound 3.16 µM, first compound 0.00316 µM
[43] = second compound 3.16 µM, first compound 0.01 µM
[44] = second compound 10 µM, first compound 0.00316 µM
[45] = second compound 10 µM, first compound 0.01 µM

## NS(=O)(=O)OCC1CC(n2ccc3c(NC4CCc5ccccc54)ncnc32)CC1O (configuration not stated) + Cc1cncc(-c2nc(NCCc3c[nH]c4ccccc34)c3ncn(C(C)C)c3n2)c1
[1]
  IC50: 50.3 nM
[2]
  IC50: 45.8 nM
[3]
  IC50: 42 nM
[4]
  IC50: 40.5 nM
[5]
  IC50: < 31.6 nM
[6]
  viability, T/C: 59.4%
[7]
  viability, T/C: 36%
[8]
  viability, T/C: 17.1%
[9]
  viability, T/C: 7.31%
[10]
  viability, T/C: 5.19%
[11]
  viability, T/C: 4.45%
[12]
  viability, T/C: 56.9%
[13]
  viability, T/C: 35.4%
[14]
  viability, T/C: 16.1%
[15]
  viability, T/C: 6.55%
[16]
  viability, T/C: 5.26%
[17]
  viability, T/C: 3.74%
[18]
  viability, T/C: 55%
[19]
  viability, T/C: 34.7%
[20]
  viability, T/C: 17.6%
[21]
  viability, T/C: 6.95%
[22]
  viability, T/C: 4.06%
[23]
  viability, T/C: 4.6%
[24]
  viability, T/C: 54.9%
[25]
  viability, T/C: 32.2%
[26]
  viability, T/C: 15.8%
[27]
  viability, T/C: 4.55%
[28]
  viability, T/C: 4.39%
[29]
  viability, T/C: 2.86%
[30]
  viability, T/C: 42.2%
[31]
  viability, T/C: 24.6%
[32]
  viability, T/C: 12.2%
[33]
  viability, T/C: 3.49%
[34]
  viability, T/C: 2.11%
[35]
  viability, T/C: 1.61%

## Nc1ccn(C2OC(CO)C(O)C2(F)F)c(=O)n1 (configuration not stated) + Cc1ccccc1N=Nc1ccc(NC(=O)c2ccnn2C)c(C)c1
[1]
  IC50: < 31.6 nM
[2]
  IC50: < 31.6 nM
[3]
  IC50: < 31.6 nM
[4]
  IC50: < 31.6 nM
[5]
  IC50: < 31.6 nM
[6]
  viability, T/C: 21.8%
[7]
  viability, T/C: 23.8%
[8]
  viability, T/C: 25.1%
[9]
  viability, T/C: 23.9%
[10]
  viability, T/C: 25.7%
[11]
  viability, T/C: 25.5%
[12]
  viability, T/C: 25.6%
[13]
  viability, T/C: 28.2%
[14]
  viability, T/C: 26.3%
[15]
  viability, T/C: 23%
[16]
  viability, T/C: 23.2%
[17]
  viability, T/C: 24.2%
[18]
  viability, T/C: 25.5%
[19]
  viability, T/C: 24.6%
[20]
  viability, T/C: 26.5%
[21]
  viability, T/C: 23.7%
[22]
  viability, T/C: 26.4%
[23]
  viability, T/C: 25.7%
[24]
  viability, T/C: 25.4%
[25]
  viability, T/C: 27.7%
[26]
  viability, T/C: 28.3%
[27]
  viability, T/C: 24.9%
[28]
  viability, T/C: 26.8%
[29]
  viability, T/C: 28.5%
[30]
  viability, T/C: 29.2%
[31]
  viability, T/C: 32.7%
[32]
  viability, T/C: 29.4%
[33]
  viability, T/C: 31.7%
[34]
  viability, T/C: 31.7%
[35]
  viability, T/C: 30%

## CC[C@@]1(O)C(=O)OCc2c1cc1n(c2=O)Cc2cc3c(CN(C)C)c(O)ccc3nc2-1 + Cc1ccccc1N=Nc1ccc(NC(=O)c2ccnn2C)c(C)c1
[1]
  IC50: 61.1 nM
[2]
  IC50: 65.1 nM
[3]
  IC50: 71.2 nM
[4]
  IC50: 74.1 nM
[5]
  IC50: 61.2 nM
Second compound 0.1 µM, first compound 0.000316 µM
  viability, T/C: 99.3%
Second compound 0.1 µM, first compound 0.001 µM
  viability, T/C: 102%
[36]
  viability, T/C: 97.8%
[37]
  viability, T/C: 88.6%
[6]
  viability, T/C: 66.2%
[7]
  viability, T/C: 38%
Second compound 0.316 µM, first compound 0.000316 µM
  viability, T/C: 95%
Second compound 0.316 µM, first compound 0.001 µM
  viability, T/C: 106%
[38]
  viability, T/C: 100%
[39]
  viability, T/C: 102%
[12]
  viability, T/C: 61.7%
[13]
  viability, T/C: 43%
Second compound 1 µM, first compound 0.000316 µM
  viability, T/C: 99.2%
Second compound 1 µM, first compound 0.001 µM
  viability, T/C: 92.3%
[40]
  viability, T/C: 99.6%
[41]
  viability, T/C: 94%
[18]
  viability, T/C: 65%
[19]
  viability, T/C: 43.7%
Second compound 3.16 µM, first compound 0.000316 µM
  viability, T/C: 89.2%
Second compound 3.16 µM, first compound 0.001 µM
  viability, T/C: 92.1%
[42]
  viability, T/C: 93.2%
[43]
  viability, T/C: 83.4%
[24]
  viability, T/C: 68.5%
[25]
  viability, T/C: 43.5%
Second compound 10 µM, first compound 0.000316 µM
  viability, T/C: 91.8%
Second compound 10 µM, first compound 0.001 µM
  viability, T/C: 92.2%
[44]
  viability, T/C: 92.1%
[45]
  viability, T/C: 87.6%
[30]
  viability, T/C: 58%
[31]
  viability, T/C: 44.1%

## COc1ccc([C@@H](O)c2cc(-c3ncnc4cc(N5CCOCC5)ccc34)c(F)cc2Cl)nn1 + CC(CO)NC(=O)c1cc(-c2ccc(Cl)cc2)nn(-c2cnn(C)c2)c1=O
[1]
  IC50: > 10000 nM
[2]
  IC50: > 10000 nM
[3]
  IC50: > 10000 nM
[4]
  IC50: > 10000 nM
[5]
  IC50: > 10000 nM
[6]
  viability, T/C: 98.8%
[7]
  viability, T/C: 100%
[8]
  viability, T/C: 100%
[9]
  viability, T/C: 105%
[10]
  viability, T/C: 108%
[11]
  viability, T/C: 61%
[12]
  viability, T/C: 98.5%
[13]
  viability, T/C: 96.2%
[14]
  viability, T/C: 90.4%
[15]
  viability, T/C: 94.9%
[16]
  viability, T/C: 101%
[17]
  viability, T/C: 63.3%
[18]
  viability, T/C: 92%
[19]
  viability, T/C: 95.5%
[20]
  viability, T/C: 96.7%
[21]
  viability, T/C: 107%
[22]
  viability, T/C: 98.3%
[23]
  viability, T/C: 63.8%
[24]
  viability, T/C: 108%
[25]
  viability, T/C: 99.8%
[26]
  viability, T/C: 91.9%
[27]
  viability, T/C: 103%
[28]
  viability, T/C: 104%
[29]
  viability, T/C: 64.2%
[30]
  viability, T/C: 104%
[31]
  viability, T/C: 97.5%
[32]
  viability, T/C: 95.1%
[33]
  viability, T/C: 87.5%
[34]
  viability, T/C: 81.2%
[35]
  viability, T/C: 55.2%

## O=C(c1cc(Cc2n[nH]c(=O)c3ccccc23)ccc1F)N1CCN(C(=O)C2CC2)CC1
Compound 0.0316 µM
  viability, T/C: 106% and 111% and 105%
Compound 0.1 µM
  viability, T/C: 110% and 111% and 95.4%
Compound 0.316 µM
  viability, T/C: 97.3% and 106% and 87.7%
Compound 1 µM
  viability, T/C: 98% and 103% and 96.3%
Compound 3.16 µM
  viability, T/C: 82.4% and 108% and 76.7%
Compound 10 µM
  viability, T/C: 50.8% and 105% and 60.7%
Curve of compound
  IC50: > 10000 nM

## CC1COCCN1c1cc(-c2ccnn2C)c2ccnc(-c3ccn[nH]3)c2n1 (configuration not stated) + Cc1cncc(-c2nc(NCCc3c[nH]c4ccccc34)c3ncn(C(C)C)c3n2)c1
[1]
  IC50: 38 nM
[2]
  IC50: 51 nM
[3]
  IC50: 41.5 nM
[4]
  IC50: 41.8 nM
[5]
  IC50: < 3.16 nM
[36]
  viability, T/C: 90.6%
[37]
  viability, T/C: 85.9%
[6]
  viability, T/C: 51%
[7]
  viability, T/C: 29.9%
[8]
  viability, T/C: 19.6%
[9]
  viability, T/C: 12.8%
[38]
  viability, T/C: 97.1%
[39]
  viability, T/C: 93.7%
[12]
  viability, T/C: 61.8%
[13]
  viability, T/C: 31.4%
[14]
  viability, T/C: 19.8%
[15]
  viability, T/C: 12%
[40]
  viability, T/C: 87.5%
[41]
  viability, T/C: 92.6%
[18]
  viability, T/C: 55.3%
[19]
  viability, T/C: 27.9%
[20]
  viability, T/C: 23.6%
[21]
  viability, T/C: 11.7%
[42]
  viability, T/C: 83.9%
[43]
  viability, T/C: 85.9%
[24]
  viability, T/C: 55.8%
[25]
  viability, T/C: 26.7%
[26]
  viability, T/C: 17%
[27]
  viability, T/C: 11.2%
[44]
  viability, T/C: 28.8%
[45]
  viability, T/C: 29.6%
[30]
  viability, T/C: 22.6%
[31]
  viability, T/C: 15.5%
[32]
  viability, T/C: 9.12%
[33]
  viability, T/C: 7.26%
